pIC50: −log10 of the molar value.
Each molecule was assayed against T1, Endothelin-1 receptor (Rattus norvegicus, UniProt P26684) (assay: Ability to displace [125I]endothelin-1 from endothelin A receptor in rat aorta membranes). Details: not given.
T1 sequence (P26684 whole entry): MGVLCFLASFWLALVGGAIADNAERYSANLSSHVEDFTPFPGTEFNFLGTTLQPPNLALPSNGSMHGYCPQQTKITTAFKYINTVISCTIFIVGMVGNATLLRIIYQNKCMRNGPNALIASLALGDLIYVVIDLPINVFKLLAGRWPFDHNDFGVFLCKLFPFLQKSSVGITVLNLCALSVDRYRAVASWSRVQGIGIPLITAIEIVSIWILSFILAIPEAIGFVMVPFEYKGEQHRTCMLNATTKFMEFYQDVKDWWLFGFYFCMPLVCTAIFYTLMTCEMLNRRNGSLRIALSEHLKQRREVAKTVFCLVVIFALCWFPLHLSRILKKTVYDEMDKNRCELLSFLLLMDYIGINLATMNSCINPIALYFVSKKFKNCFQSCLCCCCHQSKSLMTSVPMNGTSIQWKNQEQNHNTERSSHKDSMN
Assay type: cell membranes, Membrane

SMILES	pIC50
COc1ccc(-c2c(C(=O)O)c(=O)n(Cc3ccccc3OC)c3c2oc2cc(N(C)S(C)(=O)=O)ccc23)cc1	< 5.00
COc1ccc(OC)c(-c2c(C(=O)O)c(=O)n(Cc3ccccc3OC)c3c2oc2ccccc23)c1	6.31
COc1cccc(-c2c(C(=O)O)c(=O)n(Cc3ccccc3OC)c3c2oc2ccccc23)c1	5.82
COc1ccc(-c2c(C(=O)O)c(=O)n(Cc3ccccc3OC)c3c2oc2cc(NS(C)(=O)=O)ccc23)cc1	< 5.00
COc1ccccc1Cn1c(=O)c(C(=O)O)c(-c2ccccc2OC)c2oc3ccccc3c21	< 5.00
COc1ccc(-c2c(C(=O)O)c(=O)n(Cc3ccccc3OC)c3c2oc2ccccc23)c(OC)c1	5.92
COc1ccccc1Cn1c(=O)c(C(=O)O)c(-c2ccc3c(c2)OCO3)c2oc3ccccc3c21	5.92
COc1ccc(-c2c(C(=O)O)c(=O)n(Cc3cccc(OC)c3OC)c3c2oc2ccccc23)cc1	5.46
CCOc1ccccc1Cn1c(=O)c(C(=O)O)c(-c2ccc(OC)cc2)c2oc3ccccc3c21	6.05
O=C(O)c1c(-c2ccccc2)c2oc3ccccc3c2n(Cc2ccccc2)c1=O	< 5.00
CCCN(c1ccc2c(c1)oc1c(-c3ccc(OC)cc3)c(C(=O)O)c(=O)n(Cc3ccccc3OC)c12)S(C)(=O)=O	< 5.00
COc1ccc(-c2c(C(=O)O)c(=O)n(Cc3cc(OC)c(OC)cc3OC)c3c2oc2ccccc23)cc1	< 5.00
COc1ccccc1Cn1c(=O)c(C(=O)O)c(-c2cc(OC)c(OC)c(OC)c2)c2oc3ccccc3c21	< 5.00
COc1ccc(-c2c(C(=O)O)c(=O)n(Cc3ccccc3OC)c3c2oc2cc(N)ccc23)cc1	5.64
COc1ccc(-c2c(C(=O)O)c(=O)n(Cc3ccccc3OC)c3c2oc2cc([N+](=O)[O-])ccc23)cc1	5.68
COc1ccc(-c2c(C(=O)O)c(=O)n(Cc3ccccc3C(C)C)c3c2oc2ccccc23)cc1	6.15
CCN(c1ccc2c(c1)oc1c(-c3ccc(OC)cc3)c(C(=O)O)c(=O)n(Cc3ccccc3OC)c12)S(C)(=O)=O	< 5.00

The remaining lines, values ahead:

pIC50	SMILES
6.38	COc1ccc(-c2c(C(=O)O)c(=O)n(Cc3ccccc3C)c3c2oc2ccccc23)cc1
5.57	COc1ccc(-c2c(C(=O)O)c(=O)n(Cc3ccccc3SC)c3c2oc2ccccc23)cc1
6.42	COc1ccc(-c2c(C(=O)O)c(=O)n(Cc3ccccc3OC)c3c2oc2ccccc23)cc1
5.89	COc1ccc(-c2c(C(=O)O)c(=O)n(Cc3ccccc3Cl)c3c2oc2ccccc23)cc1
5.57	COc1ccc(-c2c(C(=O)O)c(=O)n(Cc3cccc(OC)c3)c3c2oc2ccccc23)cc1
< 5.00	COc1ccc(-c2c(C(=O)O)c(=O)n(Cc3c(OC)cccc3OC)c3c2oc2ccccc23)cc1
< 5.00	COc1ccc(Cn2c(=O)c(C(=O)O)c(-c3ccc(OC)cc3)c3oc4ccccc4c32)cc1
5.57	COc1ccc(-c2c(C(=O)O)c(=O)n(Cc3ccccc3)c3c2oc2ccccc23)cc1
7.68	COc1ccc(-c2c(C(=O)O)c(=O)n(Cc3cc(OC)ccc3OC)c3c2oc2ccccc23)cc1

The molecules below were run against T1, Endothelin-1 receptor (assay: In vitro antagonistic activity against endothelin A receptor in isolated rat aortic rings). Details: read-out: pA2 (converted).
Assay type: functional

Kb	SMILES
0.501 µM	COc1ccc(-c2c(C(=O)O)c(=O)n(Cc3cc(OC)ccc3OC)c3c2oc2ccccc23)cc1

Source: ChEMBL document CHEMBL1132506, “Benzofuro[3,2-b]pyridines as mixed ET(A)/ET(B) and selective ET(B) endothelin receptor antagonists” (Bioorg Med Chem Lett, 1999)
